This is an account of results in patent publication US10683267B1, “Antidiabetic compounds” (King Abdulaziz University, priority 2019, dated 2020).

Assay [1] has as its system diabetic mice. Kind of assay: Fasting blood glucose of diabetic mice treated daily for 6 consecutive days. The assay is classed as in vivo. The following applies: 50 mg/kg oral daily. Here is the method: (§1) The Biochemical and Research Ethical Committee of King Abulaziz University (Jeddah, Saudi Arabia), in accordance with the NIH guidelines, approved all procedures, and the animals received human care during the experimental period. Experiments were carried out using adult male Swiss albino mice (SWR), of 8-9 weeks age and 30-35 g weight. Animals were purchased from the animal house of the King Fahed Medical Research center (KFMRC), Jeddah, Saudi Arabia. Mice were kept at a constant temperature of 24-25° C. and were subjected to a controlled 12 h light-dark cycle; they had free access to water and pelleted diet ad libitum.
(§2) Nicotinamide (210 mg/kg b.w.), dissolved in saline, was injected intraperitoneally 15 min before the intraperitoneal injection of Streptozotocin (STZ) (Sigma, 180 mg/kg b.w.), which was freshly prepared in citrate buffer (pH 4.5). Control animals received both vehicles. During the experimental period, animals' food intake and body weight gain were monitored once a week.
(§3) On the same groups that received the single dose treatment, the tested compounds were given daily by oral gavage for six consecutive days. On day 6, the overnight fasted diabetic mice were pretreated with the 6th oral dose of the tested compounds. Two hours later, an oral glucose was loaded (2 g/kg/10 ml b.w.). Blood glucose levels were determined using the Accu-check Go®. Samples were collected just before drug administration (Fasting Blood glucose), then 2 h after drug treatment and before glucose administration. Samples collection was continued at 20, 40, 60 and 120 min intervals after glucose loading.
The oral glucose tolerance test (OGTT) was performed over six days on diabetic mice. The glucose level was monitored daily (Table 3). The results were analyzed for activities after a single dose (Table 4) and after the 6th dose of the drug (Table 5).

The subject of assay [2] is diabetic mice. The assay can be described thus: Oral glucose tolerance test (OGTT) after single dose in diabetic mice. The assay is classed as in vivo. The following applies: for R.P. to Vildagliptin (Single Dose): Table 6, relative potency, B.G. = blood glucose; for AUC % change from diabetic control / AUC Δ from diabetic control / AUC of blood glucose in OGTT (X, mean): single oral dose 50 mg/kg; for AUC of blood glucose in OGTT (X, mean): glucose load 2 g/kg 2 h later, AUC 0-120 min. Here is the method: as §1, §2
Oral glucose tolerance tests were performed in 14 h overnight fasted diabetic mice that were pretreated with a single oral dose of the tested compounds. […] The drugs were suspended in carboxymethyl cellulose (CMC)-Na (1% in distilled water) and the dosing volume was adjusted at 10 mL/kg body weight of the mouse. Then an oral glucose load was administered (2 g/kg) 2 h after drug treatment. Blood glucose levels were determined using the Accu-check Go® (Roche Diagnostics, Michigan, USA). Samples were collected just before drug administration (fasting blood glucose), then at 2 h after drug treatment (immediately before glucose loading). Then blood sample collection was continued at 20, 40, 60 and 120 min intervals after glucose loading.
Animals were distributed between three categories of groups. Each group is composed of six animals (n=6) […] as follows:
Category 1: One group of animals were 14 h overnight-fasted normoglycemic mice and vehicle-treated (1% CMC-Na) at a dose of 10 ml/kg.
Category 2: Another group of animals was overnight fasted diabetic mice received the vehicle (1% CMC-Na) at a dosing volume of 10 ml/kg and served as a negative control.
Category 4: Animals of these groups were overnight fasted diabetic mice received the tested compounds at a dose of 50 mg/kg in 1% CMC (volume of 10 ml/kg).

In assay [3] the test system is diabetic mice. Kind of assay: Oral glucose tolerance test (OGTT) after multiple doses (6 days) in diabetic mice. It is filed as in vivo. The conditions noted are these: for AUC % change from diabetic control / AUC Δ from diabetic control / Relative potency to vildagliptin / AUC of blood glucose in OGTT (X, mean): 50 mg/kg oral for 6 days; for Relative potency to vildagliptin: OGTT AUC; for AUC of blood glucose in OGTT (X, mean): glucose load 2 g/kg 2 h after 6th dose, AUC 0-120 min; for R.P. to Vildagliptin (6 Days): Table 6, relative potency, B.G. = blood glucose. Here is the method:
as §1, §2, §3

Assay [4] concerns the target T1, DPP-IV enzyme (Homo sapiens, UniProt P27487).
T1 construct: purchased Biovision (Milpitas, Calif., USA)
The assay can be described thus: In vitro DPP-IV inhibition assay (Biovision kit, fluorescence). The conditions noted are these: for DPP-4 enzyme inhibition activity, in words: SAR discussion; for IC50: read-out: IC50; for % Inhibition @ 100 nM: compound at 100 nM. The assay is classed as biochemical. Here is the method:
DPP-IV inhibition assay was conducted using a kit purchased from Biovision (Milpitas, Calif., USA). Briefly, DPP-IV enzyme was diluted with Tris buffer and pipetted 50 μl into glass mini-cells. […] Finally a volume of 25 μl of DPP-IV substrate was added into each tube. The fluorescence generated from hydrolysis of the substrate was read at Ex/Em=360/460 nm using Modulus® single tube multimode reader (Promega, USA). Baseline fluorescence was recorded before incubation (R1) and 20 min after incubation (R2).
The standard DPP-IV inhibitor drug sitagliptin employed as positive control. […] Sigmoidal concentration-response curves for DPP-IV % inhibition versus log concentration were plotted using Graphpad prism software, version 5.00 (GraphPad Software, Inc. La Jolla, Calif., USA).

[5] abbreviates: Table 2, head prints no unit, nM per Table 6.

The structures appear in SMILES notation. “Also recorded” adds a separate entry of the source. Where two headings read alike, the source gives them in different places. Marks after values point to notes of the source that are not given here.

T1 sequence (P27487 whole entry, species assumed): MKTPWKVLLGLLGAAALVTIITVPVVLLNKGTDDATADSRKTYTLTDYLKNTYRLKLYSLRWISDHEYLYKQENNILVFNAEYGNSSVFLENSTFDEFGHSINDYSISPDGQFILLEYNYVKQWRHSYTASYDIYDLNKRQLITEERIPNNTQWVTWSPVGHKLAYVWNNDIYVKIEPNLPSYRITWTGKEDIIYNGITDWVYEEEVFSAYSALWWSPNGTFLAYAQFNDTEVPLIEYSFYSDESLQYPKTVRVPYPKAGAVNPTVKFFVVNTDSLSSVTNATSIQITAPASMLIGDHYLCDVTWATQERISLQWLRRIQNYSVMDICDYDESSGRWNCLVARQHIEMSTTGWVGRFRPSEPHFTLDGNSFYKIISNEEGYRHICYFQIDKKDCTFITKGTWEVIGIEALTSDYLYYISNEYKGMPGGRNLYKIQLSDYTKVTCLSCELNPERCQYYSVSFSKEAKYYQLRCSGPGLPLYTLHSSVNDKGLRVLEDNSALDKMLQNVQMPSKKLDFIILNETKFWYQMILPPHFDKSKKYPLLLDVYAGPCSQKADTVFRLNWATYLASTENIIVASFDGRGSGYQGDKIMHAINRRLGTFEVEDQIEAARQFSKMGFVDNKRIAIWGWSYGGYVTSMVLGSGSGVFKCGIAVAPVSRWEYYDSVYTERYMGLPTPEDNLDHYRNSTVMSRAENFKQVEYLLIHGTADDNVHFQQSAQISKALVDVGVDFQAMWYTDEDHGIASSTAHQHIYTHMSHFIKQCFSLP

By IC50 is commonly meant the concentration needed to halve the response being measured. Regarding `N#Cc1ccc(NC(=O)CNC23CC4CC(CC(C4)C2)C3)cc1` [Compound 118], in assay [1], the “Fasting blood glucose level, Day 1” value was 151.00 ± mg/dL; the “Fasting blood glucose level, Day 2” value is 124.00 ± mg/dL; the “Fasting blood glucose level, Day 3” value is listed as 117.80 ± mg/dL; the “Fasting blood glucose level, Day 4” value is 141.00 ± mg/dL. Moreover, in assay [1], the “Fasting blood glucose level, Day 5” value is reported as 140.50 ± mg/dL and the “Fasting blood glucose level, Day 6” value is listed as 151.30 ± mg/dL. For the same compound, in assay [2], the “R.P. to Vildagliptin (Single Dose)” value is on record as 1.33; the “AUC % change from diabetic control” value is −44.22%; the “AUC Δ from diabetic control” value turned out to be 22581 mg·min/dL; the “AUC of blood glucose in OGTT (X, mean)” value is listed as 28484* mg · dL^−1 · min. Moreover, in assay [3], the “AUC % change from diabetic control” value is reported as −54.25%; the “AUC Δ from diabetic control” value turned out to be 28569 mg·min/dL; the “Relative potency to vildagliptin” value turned out to be 1.50; the “AUC of blood glucose in OGTT (X, mean)” value is given as 24086* mg · dL^−1 · min. Moreover, the “R.P. to Vildagliptin (6 Days)” value in assay [3] is 0.64. For the same compound, in assay [4], the “DPP-4 enzyme inhibition activity, in words” value is “high affinity towards the enzyme; also recorded: high DPP-4 inhibition” and the “% Inhibition @ 100 nM” value came out at 81.14%. In addition, the 50% inhibitory concentration (IC50) in assay [4] (setting [5]) came out at 6.25 nM. The IC50 in assay [4] (Table 6) came to 6.25 nM.
Regarding `O=C(CNC12CC3CC(CC(C3)C1)C2)Nc1cccc(O)c1` [Compound 111], in assay [1], the “Fasting blood glucose level, Day 1” value is 171.00 mg/dL; the “Fasting blood glucose level, Day 2” value was 122.40 ± mg/dL; the “Fasting blood glucose level, Day 3” value is given as 74.80 ± mg/dL; the “Fasting blood glucose level, Day 4” value was 153.00 ± mg/dL. Further, in assay [1], the “Fasting blood glucose level, Day 5” value is 141.20 ± mg/dL and the “Fasting blood glucose level, Day 6” value was 180.20 mg/dL. Also, in assay [2], the “R.P. to Vildagliptin (Single Dose)” value turned out to be 1.52; the “AUC % change from diabetic control” value is −50.39%; the “AUC Δ from diabetic control” value came to 25735 mg·min/dL; the “AUC of blood glucose in OGTT (X, mean)” value is 25330* mg · dL^−1 · min. In assay [3], the “AUC % change from diabetic control” value is on record as −9.820%; the “AUC Δ from diabetic control” value came out at 6161 mg·min/dL; the “Relative potency to vildagliptin” value is recorded as 0.27; the “AUC of blood glucose in OGTT (X, mean)” value came to 47494 mg·min/dL. Further, the “R.P. to Vildagliptin (6 Days)” value in assay [3] turned out to be 0.46. Further, in assay [4], the “DPP-4 enzyme inhibition activity, in words” value was “much better performance” and the “% Inhibition @ 100 nM” value turned out to be 79.63%. For the same compound, the half-inhibitory concentration (IC50) in assay [4] (setting [5]) was found to be 2.08 nM. The 50% inhibitory concentration (IC50) in assay [4] (Table 6) was determined as 2.08 nM.
